The subject of experiment [1] is SNK6 cells. As to conditions: read-out: IC50 (µM) SNK6, half-maximal cell death activity; SNK6 cells; peptides 0.1–15 µM, 6 h; PI staining, FACS; mean ± SEM, n in cell (Table 1). The text has this:
(§1) We investigated the potential role of HKDC1-based peptides in ENKTL cells that were isolated from the MNCs of ENKTL patients or SNK6 cell line. Three different kinds of HKDC1-based targeting peptides, including the last 15 aa at either the N-terminal (HKN15) or C-terminal (HKC15), or the last eight aa at the C-terminal (HKC8) were selected; four different kinds of cell-penetrating sequences were employed to deliver the HKDC1-based peptides, including Antp (a 16 penetrating residue long sequence from the Drosophila antennapedia-homeodomain), penetration-accelerating segment, TAT (HIV-1 TAT sequence), and Tf (the Tf receptor (TfR) internalization sequence) sequences. All of the aa with the D-configuration (marked as D) were synthesized as retro-inverso peptides. […] We then evaluated the toxic effect of two peptides (including Tf-D-HKC15 and Tf-D-HKC8) on different kinds of primary and cancer cell lines (see details in Table 2). […] We also evaluated the peptide delivery efficiency using ^125I-labeled uptake assay for both Tf-D-HKC8 and Tf-D-HKC15 peptides.
(§2) Measurement of apoptosis and cell death. Apoptosis was evaluated by TUNEL assay using the In Situ Cell Death Detection Kit™ (Roche). Cells were fixed in 4% paraformaldehyde and labeled with TUNEL reagents. Stained cells were photographed by a fluorescence microscope (11). For cell death analysis, the propidium iodide (PI) staining was performed by addition of 6.25 µg/ml of PI to the cells, and cell death was immediately evaluated by FACS analysis (3).

In the next experiment the test system is MNCs from ENKTL patients. As to conditions: read-out: IC50 (µM) ENKTL, half-maximal cell death activity, peptides 0.1–15 µM, 6 h, PI staining, FACS, mean ± SEM, n in cell.
Source text: as §1, §2

A further experiment relates to EBV. In words: EBV viral genomes/cell by qPCR in SNK6 cells. As to conditions: 0.5 µM peptide, 6 h, vs CTL, n = 4 (Fig. 3i). The class given is cell-based. On the procedure: Detection of EBV copy number. Genomic DNA was extracted from treated SNK-6 cells or SNK-6 tumor tissue in mice using a QIAamp DNA Mini Kit (Qiagen). The EBV DNA copy number was measured through qPCR using 50ng of total DNA with EBV BMRF1 primers (see Table 1), and the results were normalized using cellular β-actin (primers see Table 1) as an internal control (13, 14). The Namalwa cell line, which contains 2 EBV viral genome copies, was used as a standard to prepare calibration curves for both EBV BMRF1 and β-actin genes, and the EBV viral load was presented as the number of viral genomes per cell (15, 16).

Experiment [2] concerns SNK6 xenograft. In words: SNK6 xenograft tumor volume. Type of experiment: in vivo, mouse. As to conditions: nude mice, n = 5.
Description: To measure malignant SNK6 xenograft growth, 100 µl of 1 × 10^5 SNK6 cells in PBS were mixed with 100 µl growth factor-reduced basement membrane matrix (Matrigel™, BD Biosciences) resulting in 200 µl of solution that was injected subcutaneously along the mouse flank at each intended tumor site. Tumor size was measured using a digital caliper and volume was calculated, and mice were randomly divided into four groups (n = 9 per group) when the tumor volume reached 50–100 mm^3 on day ~18 after tumor inoculation and given treatment as follows: Group 1 (control (CTL)) was intratumorally injected with HBSS buffer (5.33 mM KCl, 0.44 mM KH2PO4, 138 mM NaCl, 4 mM NaHCO3, 0.3 mM Na2HPO4, and 5.6 mM glucose, pH 7.3) containing 0.05% DMSO; Group 2 (Tf-D-HKN15) received HBSS buffer containing 0.05% DMSO with 50 µM Tf-D-HKN15 peptides; Group 3 (Tf-D-HKC15) received HBSS buffer containing 0.05% DMSO with 50 µM Tf-D-HKC15 peptides; Group 4 (Tf-D-HKC8) received HBSS buffer containing 0.05% DMSO with 50 µM Tf-D-HKC8 peptides. The xenografts were injected (two points, 20 µl per tumor) every 2 days. Beginning on the day of inoculation, mouse weight and tumor volume were monitored every 2 days. Mice were monitored for changes in body weight and sacrificed when values fell below 20% of their initial weight; the survival curve was calculated and the final tumor tissues were isolated for biomedical analysis.
To measure the malignant SNK6 xenograft growth, the 100µl of 1x10^5 SNK6 cells in PBS were mixed with 100µl growth factor-reduced basement membrane matrix (Matrigel™, BD Biosciences) resulting in 200µl of solution that was injected subcutaneously along the mouse flank at each intended tumor site. Tumor size was measured using a digital caliper and volume was calculated, and mice were randomly divided into 4 groups (n=9 per group) when the tumor volume reached 50-100 mm^3 on day ~18 after tumor inoculation: Group 1 (CTL) was intratumorally injected with HBSS buffer (5.33 mM KCl, 0.44 mM KH2PO4, 138 mM NaCl, 4 mM NaHCO3, 0.3 mM Na2HPO4, and 5.6 mM glucose, pH 7.3) containing 0.05% DMSO; Group 2 (Tf-D-HKN15) received HBSS buffer containing 0.05% DMSO with 50 µM Tf-D-HKN15 peptides; Group 3 (Tf-D-HKC15) received HBSS buffer containing 0.05% DMSO with 50 µM Tf-D-HKC15 peptides; Group 4 (Tf-D-HKC8) received HBSS buffer containing 0.05% DMSO with 50 µM Tf-D-HKC8 peptides. The xenografts were injected (two points, 20 µL per tumor) every two days. Beginning on the day of inoculation, mouse weight and tumor volume were monitored every 2 days. Mice were monitored for changes in body weight and sacrificed when values fell below 20% of their initial weight, the survival curve was calculated and the final tumor tissues were isolated for biomedical analysis.
Experiment [3] relates to SNK6 cells. As to conditions: 0.5 µM peptide, 6 h, vs CTL, n = 3 (Fig. 5g). As to the method:
Immunostaining. […] The cells were then washed three times and the FITC labeled anti-mouse secondary antibody (1:100) was added for blotting for another 1 hour. After thorough washing, the slides were visualized and photographed, the nuclei of cells were stained with 4’,6-diamidino-2-phenylindole dihydrochloride (DAPI, #D9542, from Sigma), and the positive Ki-67 cells were quantitated.

The test system of experiment [4] is SNK6 cells. Briefly: ROS formation (CM-H2DCFDA). Type of experiment: cell-based, human. As to conditions: 0.5 µM peptide, 6 h, compared with CTL group, n = 5 (Fig. 3a). On the procedure:
Measurement of ROS generation. Treated cells were seeded in a 24-well plate and incubated with 10μM CM-H2DCFDA (Invitrogen) for 45 min at 37°C, and then the intracellular formation of reactive oxygen species (ROS) was measured at excitation/emission wavelengths of 485/530nm using a FLx800 microplate fluorescence reader (Bio-Tek). The data was normalized as arbitrary units (8, 11).

Experiment [5] deals with SNK6 cells. Briefly: γH2AX formation (western blot). As to conditions: 0.5 µM peptide, 6 h, vs CTL, n = 5 (Fig. 3d). Type of experiment: cell-based, human. As to the method: (§3) Measurement of DNA breaks. 8-OHdG formation was measured using an OxiSelect™ Oxidative DNA Damage ELISA Kit (Cat No. STA320, from Cell Biolabs Inc.) per manufacturers’ instructions. The formation of γH2AX was measured from nuclear extracts by western blotting using H2AX as the input control (8).
A general note: In western blotting, separated proteins are transferred to a membrane and probed.

Experiment [6] has as its system SNK6 cells. Briefly: Apoptosis rate by TUNEL assay. Type of experiment: cell-based, human. As to conditions: 0.5 µM peptide, 6 h, compared with CTL group, n = 5 (Fig. 4h). As to the method: as §2
Experiment [7] has as its system SNK6 cells. Briefly: Cell proliferation by thymidine incorporation. The class given is cell-based, human. As to conditions: 0.5 µM peptide, 6 h, vs CTL, n = 5 (Fig. 5a). On the procedure:
DNA synthesis by [^3H]-thymidine incorporation. Cell proliferation was evaluated as the rate of DNA synthesis by [^3H]-methylthymidine incorporation (17). […] At the end of the treatment, cells were incubated with serum-free media containing ^3H-methylthymidine (0.5 µCi/well) for 2 hours and then washed twice with PBS. Cellular DNA was precipitated using 10% trichloroacetic acid and solubilized with 0.4M NaOH (0.5 ml/well). Incorporation of ^3H-methylthymidine into the DNA was measured in a scintillation counter and was determined as counts per minute (CPM) (8).
(Incorporation of labelled thymidine or its analogues reports DNA synthesis.)

In experiment [8] the test system is SNK6 cells. In words: 3-nitrotyrosine formation (ELISA). Type of experiment: cell-based, human. As to conditions: 0.5 µM peptide, 6 h, compared with CTL group, n = 5 (Fig. 3b). As to the method: Antibodies for β-actin (sc-47778), EBV Ea-D (sc-58121), EBV ZEBRA (BZ1, sc-53904), Ki-67 (sc-101861) and VDAC1 (sc-390996) were obtained from Santa Cruz Biotechnology. Antibodies for HK2 (ab104836), H2AX (ab20669), γH2AX (ab2893) and P-gp (ab129450) were obtained from Abcam. The antibody for HKDC1 (NBP1-82108) was obtained from Novus Biologicals. 3-nitrotyrosine (3-NT) was measured by 3-Nitrotyrosine ELISA Kit (ab116691 from Abcam). Nuclear extracts were prepared using the NE-PER Nuclear and Cytoplasmic Extraction Reagents Kit (Pierce Biotechnology). Protein concentration was measured using the Coomassie Protein Assay Kit (Pierce Biotechnology) per manufacturers’ instructions.
(In an ELISA, binding on a coated surface is turned into a signal by an enzyme label.)

For experiment [9], the system named is SNK6 cells. Briefly: 8-OHdG formation (DNA damage ELISA). Type of experiment: cell-based, human. As to conditions: 0.5 µM peptide, 6 h, vs CTL, n = 5 (Fig. 3c). On the procedure: as §3
The target in another experiment is HKDC1/VDAC1 (Homo sapiens, UniProt P21796). In words: IP/WB association of HKDC1 with VDAC1 in SNK6 cells. The class given is cell-based. Also noted: endogenous in cells; host or cells: SNK6. As to conditions: 0.5 µM peptide, 6 h, vs CTL, n = 5 (Fig. 4c, d). As to the method:
Immunoprecipitation (IP) and Western Blotting (WB). Cell lysates were pre-cleared by pre-immune IgG plus Protein A agarose beads for 2 hours, and the supernatants were immunoprecipitated by the indicated antibodies and a 50% slurry of Protein A Agarose beads overnight at 4 °C (9). After washing with buffer containing 50 mM Tris, pH 7.5, 150 mM NaCl, 1% NP-40, and 0.5% deoxycholate with protease inhibitors, proteins were released, separated on 10% SDS-PAGE gels, blotted by primary antibodies, and then simultaneously incubated with the differentially labeled species-specific secondary antibodies, anti-RABBIT IRDye™ 800CW (green) and anti-MOUSE (or goat) ALEXA680 (red). Membranes were scanned and quantitated by the ODYSSEY Infrared Imaging System (LI-COR, NE) (10).

For experiment [10], the system named is SNK6 xenograft. Briefly: Mouse survival, Kaplan–Meier analysis. Type of experiment: in vivo. As to conditions: nude mice, intratumoral 50 µM peptide every 2 days from day ~18, compared with CTL group, n = 9. As to the method:
Statistical analysis. The data was given as mean ± SEM; all of the experiments were performed at least in quadruplicate unless otherwise indicated. One-way ANOVA followed by the Bonferroni post hoc test was used to determine statistical significance of different groups. The mouse survival curve was determined through Kaplan-Meier survival analysis using SPSS 22 software, and a P value < 0.05 was considered significant (8).

Ends that are not written are not given here.

As a reminder, the IC50 is the midpoint of a concentration-inhibition curve.

HKDC1/VDAC1, sequence (P21796 2-283 limits assumed): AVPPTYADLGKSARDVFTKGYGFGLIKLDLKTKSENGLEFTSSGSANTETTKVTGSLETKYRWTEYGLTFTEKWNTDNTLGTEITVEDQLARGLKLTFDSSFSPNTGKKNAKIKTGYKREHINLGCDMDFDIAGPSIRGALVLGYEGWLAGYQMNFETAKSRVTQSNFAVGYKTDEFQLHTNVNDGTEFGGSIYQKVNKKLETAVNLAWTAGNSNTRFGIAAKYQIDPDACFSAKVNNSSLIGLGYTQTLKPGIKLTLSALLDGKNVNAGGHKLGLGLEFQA

Take GYGRKKRRQRRRG-LQQAQKEN [TAT-D-HKC8]: the IC50 in the experiment with SNK6 cells [1] amounted to 1.7 ± 0.5 µM; in the experiment on MNCs from ENKTL patients, 1.5 ± 0.7 µM.

With HAIYPRH-MFAVHLMAFYFSKLK [Tf-D-HKN15], the EBV genome copies entry in the experiment on EBV is “no effect”. Moreover, the IC50 in the experiment with SNK6 cells [1] and with MNCs from ENKTL patients was over 15 µM throughout. Besides, the “tumor volumes on day 36” value with SNK6 xenograft [2] (intratumoral 50 µM peptide every 2 days from day ~18, day 36, vs CTL) was “no effect”. Moreover, the “tumor volumes on day 48” value in the experiment with SNK6 xenograft [2] (intratumoral 50 µM peptide every 2 days from day ~18, day 48, vs CTL) is reported as “no effect”. The “cell proliferation by quantitation of Ki-67 positive cells” value with SNK6 cells [3] is “no effect”. For the same substance, in the experiment on SNK6 cells [4], the ROS formation result is on record as “no effect”. In addition, in the experiment on SNK6 cells [5], the γH2AX formation result was “no effect”. In addition, in the experiment with SNK6 cells [6], the apoptosis rate increase result is on record as “no effect”. Also, in the experiment with SNK6 cells [7], the thymidine incorporation entry is recorded as “no effect”. Besides, the 3-nitrotyrosine formation entry in the experiment with SNK6 cells [8] is recorded as “no effect”. In the experiment with SNK6 cells [9], the 8-OHdG formation entry is “no effect”. Besides, the “association of HKDC1 with VDAC1” value on HKDC1/VDAC1 is “no effect”. Also, in the experiment on SNK6 xenograft [10], the mouse survival entry was “little effect”.

For the substance GKPILFFLQQAQKEN [PAS-HKC8], the IC50 with SNK6 cells [1] is 1.4 ± 0.3 µM; in the experiment on MNCs from ENKTL patients, 1.4 ± 0.4 µM.

Consider “HAIYPRH-EILNKEKK [Tf-D-Scram, reference compound]”, for which the IC50 in the experiment with SNK6 cells [1] and in the experiment on MNCs from ENKTL patients was over 15 µM throughout.

As for GKPILFF-LQQAQKEN [PAS-D-HKC8], the values for the IC50 with SNK6 cells [1] and in the experiment with MNCs from ENKTL patients were 1.3 ± 0.3 µM and 1.1 ± 0.3 µM, respectively.

As for HAIYPRHMFAVHLMAFYFSKLK [Tf-HKN15], the IC50 with SNK6 cells [1] and with MNCs from ENKTL patients was over 15 µM throughout.

With RQIKIWFQNRRMKWKKLQQAQKEN [Antp-HKC8], the IC50 in the experiment on SNK6 cells [1] worked out at 1.3 ± 0.3 µM; with MNCs from ENKTL patients, 1.3 ± 0.4 µM.

“HAIYPRHEILNKEKK [Tf-Scram, reference compound]”: the IC50 in the experiment on SNK6 cells [1] and in the experiment on MNCs from ENKTL patients was over 15 µM in each case.

GYGRKKRRQRRRGLQQAQKEN [TAT-HKC8]: the figures for the IC50 in the experiment with SNK6 cells [1] and in the experiment on MNCs from ENKTL patients were 2 ± 0.4 µM and 1.9 ± 0.4 µM, respectively.

HAIYPRHLQQAQKEN [Tf-HKC8]: the IC50 in the experiment with SNK6 cells [1] stood at 0.7 ± 0.2 µM; with MNCs from ENKTL patients, 0.5 ± 0.2 µM.

For the substance HAIYPRHITAVAKRLQQAQKEN [Tf-HKC15], the IC50 stood at 1.4 ± 0.3 µM in the experiment on SNK6 cells [1] and 1.2 ± 0.4 µM in the experiment on MNCs from ENKTL patients.

Take RQIKIWFQNRRMKWKK-LQQAQKEN [Antp-D-HKC8]: the IC50 amounted to 1.2 ± 0.4 µM in the experiment on SNK6 cells [1] and 1 ± 0.3 µM in the experiment with MNCs from ENKTL patients.
